Measured values from PMC9457810, “Synthesis, Structure and Antileishmanial Evaluation of Endoperoxide–Pyrazole Hybrids” (Molecules, 2022).
Structures can show the parent of a compound that is named as a salt.

Columns and labels:
L. major = system: L. major; design: method as in PMID 30215271; details: given in Figure 1A; cited from earlier work
L. infantum = system: L. infantum; design: method as in PMID 26014947; details: given in Figure 1A; cited from earlier work
L. donovani = system: L. donovani; design: method as in PMID 31979089; details: given in Figure 1A; cited from earlier work
L. tropica promastigotes = assay: Leishmania promastigotes in vitro susceptibility (MTT), L. tropica; type: cell-based; details: Leishmania tropica, 48 h, at least three independent assays, read-out: Promastigotes Susceptibility IC50 ± SEM, L. tropica
[1] = system: L. infantum promastigotes; assay: Leishmania promastigotes in vitro susceptibility (MTT), L. infantum; type: cell-based; details: Leishmania infantum, 48 h, at least three independent assays, read-out: Promastigotes Susceptibility IC50 ± SEM, L. infantum
THP-1 cell line = assay: In vitro cytotoxicity assessment in THP-1 cell line (MTT); type: cell-based, human; details: THP-1 cells, 48 h, MTT; at least three independent assays; read-out: Cytotoxicity CC50 ± SEM
Method: (§1) THP-1 (ATCC® TIB-202TM) human acute monocytic leukemic cell line was obtained from DSMZ, Germany and cultured in RPMI 1640 (Sigma, Darmstadt, Germany) supplemented with 10% (v/v) FBS, 1% (v/v) penicillin-streptomycin (Sigma), and L-glutamine 200 mM (Sigma) at 37 °C, 5% CO2.
(§2) THP-1 cell line was used to calculate the endoperoxide–pyrazole hybrids’ half-maximal cytotoxic concentration (CC50). THP-1 was plated at a final density of 5 × 10^5 cells/mL, in 96-well flat bottom culture plates (VWR), using six different concentrations of the compounds (OZ1, OZ2, T1, T2 and PIR: 800, 400, 200, 100, 50, 25 µM) and amphotericin B (10, 5, 2.5, 1.25, 0.625, 0.313 µM). A blank (RPMI medium alone) and an untreated control (parasites with RPMI medium plus 1% DMSO as vehicle solution) were also included. All the compounds were plated out in quadruplicate and incubated for 48 h at 37 °C ± 1 °C, 5% CO2.
(§3) Following the incubation period, 20 µL per well of MTT was added as described in Section 3.5.2. After absorbance readings, the CC50 values of each compound were determined with GraphPad Prism V 9.0 (Dotmatics, San Diego, CA, USA) as previously described. At least three independent assays were performed.

[2] = Solubility in culture media (observation); type: physicochemical
Excerpt: Calculated intrinsic aqueous solubility (ClogS) values show similar values between trioxolanes (1.20–1.38) and tetraoxanes (1.18–1.21). However, the poor solubility of dispiro 4′’-substituted tetraoxanes may be associated to their structural symmetry. A decrease in molecular symmetry has been correlated to better physicochemical properties, such as absorption and solubility, resulting in enhanced systemic exposure to a drug. So it is anticipated that 3′’-substituted analogues could overcome this solubility issue. Therefore, future optimization to 3”-substituted analogues should be considered. Likewise, conversion of the compounds into water-soluble salts, as well as encapsulation of the endoperoxide structures in delivery systems such as liposomes, could represent alternative strategies to solve the solubility issue.

[3] = In vitro cytotoxicity assessment in THP-1 cell line (MTT); type: cell-based, human; details: human, THP-1 cells, 48 h, MTT; at least three independent assays; read-out: Cytotoxicity CC50 ± SEM
Method: as §1, §2, §3

SMILES: Nc1ccnn1C(=O)C1CCC2(CC1)OOC1(OO2)C2CC3CC(C2)CC1C3 (stereo not shown) (as salt: tosylate) [T1•TsOH, (5-Amino-1H-pyrazol-1-yl) (dispiro[cyclohexane-1,3′-[1,2,4,5]tetraoxane-6′,2″-tricyclo-[3.3.1.1^3,7]-decan]-4-yl) methanone p-tosylate]
- melting point: 156 °C (dec.)

SMILES: COc1ccc(-c2cn(-c3ccccc3)nc2/C=N/N=C/c2c(C)nn(-c3ccccc3)c2Cl)cc1 [3i]
- IC50 (L. major): 0.74 ± 0.1 µM

SMILES: NCC1CCC2(CC1)OOC1(O2)C2CC3CC(C2)CC1C3 (stereo not shown) [LC95]
- IC50 (L. infantum): 9.35 ± 3.64 µM

SMILES: O=C1CCC2(CC1)OOC1(OO2)C2CC3CC(C2)CC1C3 [LC140]
- IC50 (L. donovani): 2.52 ± 0.65 µM

SMILES: Nc1ccnn1C(=O)C1CCC2(CC1)OOC1(OO2)C2CC3CC(C2)CC1C3 (stereo not shown) [T1, (5-Amino-1H-pyrazol-1-yl)(dispiro[cyclohexane-1,3′-[1,2,4,5]tetraoxane-6′,2″-tricyclo-[3.3.1.1^3,7]-decan]-4-yl)methanone]
- IC50 (L. tropica promastigotes): > 400 µM
- IC50 [1]: > 400 µM
- CC50 (THP-1 cell line): > 800 µM
- Solubility in M199 and RPMI medium [2]: low solubility

SMILES: Nc1ccn(C(=O)C2CCC3(CC2)OOC2(OO3)C3CC4CC(C3)CC2C4)n1 (stereo not shown) [T2, (3-Amino-1H-pyrazol-1-yl)(dispiro[cyclohexane-1,3′-[1,2,4,5]tetraoxane-6′,2″-tricyclo[3.3.1.1^3,7]decan]-4-yl)methanone]
- CC50 at 48 h [3]: > 800 µM
- Solubility in M199 and RPMI medium [2]: low solubility
